From article PMC5466365 (Journal of the American Chemical Society, 2016)

Key:
Type in all cases: biochemical
HbHNL [1] = target: T1, HbHNL (Hevea brasiliensis, UniProt P52704); assay: benzaldehyde release, A280; conditions: 50 mM citrate pH 5.0
MeHNL [2] = target: T2, MeHNL (Manihot esculenta, UniProt P52705); assay: benzaldehyde release, A280; conditions: 50 mM citrate pH 5.0
HbHNL [3] = target: T1, HbHNL; conditions: 5 mM citrate phosphate pH 5
MeHNL [4] = target: T2, MeHNL; conditions: 5 mM citrate phosphate pH 5

T2 sequence (P52705 2-258): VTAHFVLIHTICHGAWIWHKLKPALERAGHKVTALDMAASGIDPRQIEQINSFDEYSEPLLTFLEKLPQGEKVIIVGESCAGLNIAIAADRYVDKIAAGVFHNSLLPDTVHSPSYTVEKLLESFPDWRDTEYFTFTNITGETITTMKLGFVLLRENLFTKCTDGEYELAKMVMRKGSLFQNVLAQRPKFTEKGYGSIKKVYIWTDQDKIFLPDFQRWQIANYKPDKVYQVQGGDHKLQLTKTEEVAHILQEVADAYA
T1 sequence (P52704 whole entry): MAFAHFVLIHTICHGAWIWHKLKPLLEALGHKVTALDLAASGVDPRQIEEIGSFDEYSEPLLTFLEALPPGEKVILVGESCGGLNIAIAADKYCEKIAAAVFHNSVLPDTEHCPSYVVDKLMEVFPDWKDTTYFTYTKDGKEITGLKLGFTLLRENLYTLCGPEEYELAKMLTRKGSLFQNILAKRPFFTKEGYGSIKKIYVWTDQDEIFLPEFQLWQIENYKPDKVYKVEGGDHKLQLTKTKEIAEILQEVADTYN

Row | Compound | benzaldehyde release, A280 (HbHNL [1]) | benzaldehyde release, A280 (MeHNL [2]) | HCN release, modified König reaction (HbHNL [3]) | HCN release, modified König reaction (MeHNL [4])
1 | N#CC(O)c1ccccc1 (racemic) [mandelonitrile] | They also efficiently cleaved their unnatural substrate mandelonitrile | They also efficiently cleaved their unnatural substrate mandelonitrile | – | –
2 | CC(C)(O)C#N [acetone cyanohydrin] | – | – | The best substrate is the natural one, acetone cyanohydrin | The best substrate is the natural one, acetone cyanohydrin
